Test results published in patent US7407961B2, “Pyrazine derivatives and pharmaceutical use thereof” (Astellas Pharma Inc., priority 2003, dated 2008).

Assays:
human A2a receptor = human A2a receptor (Homo sapiens, UniProt P29274); assay: Adenosine antagonistic activity, radioligand binding with [3H]CGS 21680; settings: [3H]CGS 21680 20 nM
Procedure: (§1) Test 1: Adenosine Antagonistic Activity
(§2) The adenosine antagonistic activity [Ki(nM)] of the test compound was examined by radioligand binding techniques using 8-cyclopentyl-1,3-dipropylxanthine, [dipropyl-2,3-^3H(N)] ([^3H]DPCPX, 4.5 nM) for human A1 receptor and [^3H]CGS 21680 (20 nM) for human A2a receptor.

human A1 receptor = target: T1, human A1 receptor (Homo sapiens, UniProt P30542); assay: Adenosine antagonistic activity, radioligand binding with [3H]DPCPX; settings: [3H]DPCPX 4.5 nM
T1 sequence (P30542 1-326): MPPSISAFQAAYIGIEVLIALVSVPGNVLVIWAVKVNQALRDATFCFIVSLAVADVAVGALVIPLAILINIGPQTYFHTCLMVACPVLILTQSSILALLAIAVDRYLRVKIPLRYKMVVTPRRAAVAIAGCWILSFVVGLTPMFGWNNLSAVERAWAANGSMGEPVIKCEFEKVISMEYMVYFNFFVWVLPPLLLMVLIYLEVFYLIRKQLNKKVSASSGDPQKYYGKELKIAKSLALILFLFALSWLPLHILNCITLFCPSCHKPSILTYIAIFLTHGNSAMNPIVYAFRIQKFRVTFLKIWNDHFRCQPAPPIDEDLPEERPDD
Procedure: as §1, §2

ddY mice = assay: Anticatalepsy activity in mouse (haloperidol-induced catalepsy, bar test); assay type: in vivo; settings: 3.2 mg/kg orally, ddY mice n=7; haloperidol 0.32 mg/kg i.p. 30 min later; measured 30 min after injection
Procedure: Test 2: Anticatalepsy Activity in Mouse [I] Test Method
The test compound (3.2 mg/kg) was administered orally with ddY mice (n=7). Then, haloperidol (0.32 mg/kg) was injected intraperitoneally 30 min. after the administration of the compound. Thirty min after the injection, the cataleptic responses of mice were measured. The forelimbs of each mouse were placed on a 3 cm high, 3 mm wide horizontal bar, and the duration of cataleptic posture was measured for up to 30 sec.

human A2a receptor, sequence (P29274 whole entry): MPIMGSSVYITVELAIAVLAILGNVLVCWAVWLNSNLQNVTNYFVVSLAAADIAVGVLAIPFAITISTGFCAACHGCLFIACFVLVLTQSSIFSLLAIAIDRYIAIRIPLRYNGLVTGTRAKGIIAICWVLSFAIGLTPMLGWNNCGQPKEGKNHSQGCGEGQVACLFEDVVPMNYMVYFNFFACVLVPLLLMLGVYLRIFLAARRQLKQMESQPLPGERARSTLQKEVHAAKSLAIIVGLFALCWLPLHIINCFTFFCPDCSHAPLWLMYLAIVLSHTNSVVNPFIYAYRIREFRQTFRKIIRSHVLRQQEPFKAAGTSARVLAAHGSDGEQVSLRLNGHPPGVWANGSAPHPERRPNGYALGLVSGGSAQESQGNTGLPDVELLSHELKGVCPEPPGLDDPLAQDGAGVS

| SMILES | melting point [°C] | Ki (human A2a receptor) [nM] | Ki (human A1 receptor) [nM] | Manifestation rate of Catalepsy (number of mouse) (ddY mice) |
| --- | --- | --- | --- | --- |
| COc1cccc(-c2nc(N)c(C#N)nc2-c2ccc(=O)n(C(C)C)c2)c1 (hydrate or solvate) [Example 37, 3-Amino-6-(1-isopropyl-6-oxo-1,6-dihydro-3-pyridyl)-5-(3-methoxyphenyl)-2-pyrazinecarbonitrile] | 192.3 |  |  |  |
| COc1ccc(-c2nc(N)c(C#N)nc2-c2ccc(=O)n(C(C)C)c2)cc1 (hydrate or solvate) [Example 38, 3-Amino-6-(1-isopropyl-6-oxo-1,6-dihydro-3-pyridyl)-5-(4-methoxyphenyl)-2-pyrazinecarbonitrile] | 243.9 |  |  |  |
| CC(C)n1cc(-c2nc(C#N)c(N)nc2-c2ccc(F)c(F)c2)ccc1=O (hydrate or solvate) [Example 39, 3-Amino-5-(3,4-difluorophenyl)-6-(1-isopropyl-6-oxo-1,6-dihydro-3-pyridyl)-2-pyrazinecarbonitrile] | 180 |  |  |  |
| CC(C)n1cc(-c2nc(C(=O)O)c(N)nc2-c2ccc(F)cc2)ccc1=O (hydrate or solvate) [Example 40, 3-amino-5-(4-fluorophenyl)-6-(1-isopropyl-6-oxo-1,6-dihydro-3-pyridyl)-2-pyrazinecarboxylic acid] | 222.2 |  |  |  |
| COc1ccc(-c2nc(C#N)c(N)nc2-c2ccccc2)cn1 [Example 1, 3-amino-6-(6-methoxy-3-pyridyl)-5-phenyl-2-pyrazinecarbonitrile] | 201 to 205 |  |  |  |
| Cn1cc(-c2nc(C(N)=O)c(N)nc2-c2ccccc2)ccc1=O [Example 3, 3-amino-6-(1-methyl-6-oxo-1,6-dihydro-3-pyridyl)-5-phenyl-2-pyrazinecarboxamide] | > 250 |  |  |  |
| CCn1cc(-c2nc(C(N)=O)c(N)nc2-c2ccccc2)ccc1=O [Example 4, 3-Amino-6-(1-ethyl-6-oxo-1,6-dihydro-3-pyridyl)-5-phenyl-2-pyrazinecarboxamide] | > 250 | 2.34 | 5.09 | 0/7 |
| CCCn1cc(-c2nc(C(N)=O)c(N)nc2-c2ccccc2)ccc1=O [Example 5, 3-Amino-6-(6-oxo-1-propyl-1,6-dihydro-3-pyridyl)-5-phenyl-2-pyrazinecarboxamide] | > 250 |  |  |  |
| CC(C)n1cc(-c2nc(C(N)=O)c(N)nc2-c2ccccc2)ccc1=O [Example 6, 3-Amino-6-(1-isopropyl-6-oxo-1,6-dihydro-3-pyridyl)-5-phenyl-2-pyrazinecarboxamide] | 240 to 245 |  |  |  |
| CCOC(=O)c1nc(-c2ccc(=O)[nH]c2)c(-c2ccccc2)nc1N [Example 8, Ethyl 3-amino-6-(6-oxo-1,6-dihydro-3-pyridyl)-5-phenyl-2-pyrazinecarboxylate] | 230 to 238 |  |  |  |
| CC(C)OC(=O)c1nc(-c2ccc(=O)[nH]c2)c(-c2ccccc2)nc1N [Example 9, isopropyl 3-amino-6-(6-oxo-1,6-dihydro-3-pyridyl)-5-phenyl-2-pyrazinecarboxylate] | 250 to 256 |  |  |  |
| Cn1cc(-c2nc(C#N)c(N)nc2-c2ccccc2)ccc1=O [Example 11, 3-amino-6-(1-methyl-6-oxo-1,6-dihydro-3-pyridyl)-5-phenyl-2-pyrazinecarbonitrile] |  | 2.35 | 22.5 | 0/7 |
| CCn1cc(-c2nc(C#N)c(N)nc2-c2ccccc2)ccc1=O [Example 12, 3-Amino-6-(1-ethyl-6-oxo-1,6-dihydro-3-pyridyl)-5-phenyl-2-pyrazinecarbonitrile] | 193 to 199 |  |  |  |
| CCCn1cc(-c2nc(C#N)c(N)nc2-c2ccccc2)ccc1=O [Example 13, 3-Amino-6-(6-oxo-1-propyl-1,6-dihydro-3-pyridyl)-5-phenyl-2-pyrazinecarbonitrile] | 180 to 183 |  |  |  |
| CC(C)n1cc(-c2nc(C#N)c(N)nc2-c2ccccc2)ccc1=O [Example 14, 3-Amino-6-(1-isopropyl-6-oxo-1,6-dihydro-3-pyridyl)-5-phenyl-2-pyrazinecarbonitrile] | 204.5 |  |  |  |
| CC(C)n1cc(-c2nc(C#N)c(N)nc2-c2ccc(F)c(F)c2)ccc1=O [Example 39, 3-Amino-5-(3,4-difluorophenyl)-6-(1-isopropyl-6-oxo-1,6-dihydro-3-pyridyl)-2-pyrazinecarbonitrile] |  | 6.52 | 24 | 0/7 |
| CC(C)n1cc(-c2nc(C(=O)NCC#N)c(N)nc2-c2ccccc2)ccc1=O [Example 46, 3-Amino-N-(cyanomethyl)-6-(1-isopropyl-6-oxo-1,6-dihydro-3-pyridyl)-5-phenyl-2-pyrazinecarboxamide] |  | 1.49 | 5.25 | 0/7 |
| CC(C)n1cc(-c2nc(CO)c(N)nc2-c2ccccc2)ccc1=O [Example 47, 5-[5-amino-6-(hydroxymethyl)-3-phenyl-2-pyrazinyl]-1-isopropyl-2(1H)-pyridone] |  | 7.52 | 22.3 | 1/7 |
| CC(C)n1cc(-c2nc(C(=O)NCCO)c(N)nc2-c2ccccc2)ccc1=O [Example 49, 3-Amino-N-(2-hydroxyethyl)-6-(1-isopropyl-6-oxo-1,6-dihydro-3-pyridyl)-5-phenyl-2-pyrazinecarboxamide] |  | 1.69 | 6.07 | 1/7 |
| CC(C)n1cc(-c2nc(Br)c(N)nc2-c2ccccc2)cc(Br)c1=O [Example 53, 5-(5-amino-6-bromo-3-phenyl-2-pyrazinyl)-3-bromo-1-isopropyl-2(1H)-pyridone] |  | 0.91 | 0.93 | 0/7 |
| CC(C)n1cc(-c2ncc(N)nc2-c2cccs2)ccc1=O [Example 115, 5-[5-Amino-3-(2-thienyl)-2-pyrazinyl]-1-isopropyl-2(1H)-pyridone] |  | 0.84 | 4.89 | 0/7 |
| CC(C)n1cc(-c2ncc(N)nc2-c2cc(F)cc(F)c2)ccc1=O [Example 129, 5-[5-Amino-3-(3,5-difluorophenyl)-2-pyrazinyl]-1-isopropyl-2(1H)-pyridone] |  | 3.9 | 10.7 | 0/7 |
| CC(C)n1cc(-c2nc(Br)c(N)nc2-c2ccccc2)ccc1=O [Example 141, 5-(5-amino-6-bromo-3-phenyl-2-pyrazinyl)-1-isopropyl-2(1H)-pyridone] |  | 0.23 | 0.61 | 0/7 |
| CC(C)n1cc(-c2nc(-c3ccco3)c(N)nc2-c2ccccc2)ccc1=O [Example 144, 5-[5-Amino-6-(2-furyl)-3-phenyl-2-pyrazinyl]-1-isopropyl-2(1H)-pyridone] |  | 0.54 | 1.78 | 0/7 |
| CC(C)n1cc(-c2nc(Oc3ccccc3)c(N)nc2-c2ccccc2)ccc1=O [Example 151, 5-(5-amino-6-phenoxy-3-phenyl-2-pyrazinyl)-1-isopropyl-2(1H)-pyridone] |  | 0.32 | 1.57 | 0/7 |
